According to patent US20170231910A1, “PHARMACEUTICAL FORMULATIONS OF CHELATING AGENTS AS A METAL REMOVAL TREATMENT SYSTEM” (ZONEONE PHARMA, INC., priority 2014, published 2017):
Counter-ions that a name gives are not always drawn.

Key:
[1] = PK of DFO in plasma of mice after liposomal DFO or Desferal; type: in vivo, CF-1 female mice; conditions: 100 mg/kg
Method: Liposomes containing egg PC/Chol (3 mol/2 mol, LDFO-1), egg PC/DOPG/Chol (2.7 mol/0.3 mol/2 mol, LDFO-2), and HSPC/Chol (3 mol/2 mol, LDFO-4) containing 500 mM ammonium sulfate were prepared as in Example 1. DFO was remote loaded as in Example 20.
After loading the liposomes were purified by dialysis versus HBS pH 6.5. The liposomes were sterilized by filtration through 0.2 um PES filters and analyzed for drug and lipid content. The liposomal DFO were administered to CF-1 female mice at 100 mg/kg (n=3) and at various times the animals were sacrificed and blood taken.
After processing to plasma, DFO was extracted from plasma by mixing with 6 volumes of methanol containing 0.1% trifluoroacetic acid in an eppendorf tube. The mixtures were vortexed twice for 10 seconds then placed at −80° C. for 1 h. The samples were thawed and centrifuged for 12,000 rpm for 10 min at 4° C. and the supernatant analyzed for DFO by HPLC as described herein. […] By comparison DFO was undetectable beyond 1 h after dosing with Desferal®.

[2] = test system: Iron Overloaded Mouse Model; test: Liver iron removal from iron overloaded mouse model (ferrozine assay); type: in vivo; conditions: iron-dextran overloaded mice, IV 100 mg/kg chelator on day 7 and day 10
Method: LDFO formulations were prepared as described in Example 1. Both formulations were composed of HSPC/cholesterol (3/0.5 (mol/mol)). One formulation was prepared using 250 mM ammonium sulfate (LDFO-AS) as the trapping agent and the second formulation was prepared using 250 mM ascorbate phosphate (LDFO-AP) as the trapping agent and all other components and DFO loading procedures of the formulations were identical. Mice were overloaded with a single IV injection of iron-dextran at 100 mg/kg Fe. Overloaded mice were treated with each formulation IV at 100 mg/kg chelator on day 7 and day 10. The mice were sacrificed after the second treatment and the livers were analyzed for iron content using a ferrozine assay (Riemer et al. 2004)

## CC(=O)N(O)CCCCCNC(=O)CCC(=O)N(O)CCCCCNC(=O)CCC(=O)N(O)CCCCCN [Desferal, deferoxamine mesylate]
[1]; beyond 1 h after dosing
  DFO in plasma after dosing: undetectable
[1]; IV, 24 h
  initial dose (ID) of DFO retained in the plasma at 24 h: undetectable
[2]
  mean liver iron content after treating: 229 mg/kg
